According to patent US7273866B2, “2-aryl thiazole derivatives as KCNQ modulators” (Bristol-Myers Squibb Company, priority 2002, dated 2007):

How the values were obtained:
[1] = tested on: peripheral mononeuropathy nerve injury-induced tactile allodynia; assay: Chung model of neuropathic pain (Chung surgery and von Frey test); format: in vivo, Sprague Dawley rats; conditions: 100 mg/kg, i.v.; von Frey thresholds over 90 min, rat
Procedure: Chung model of neuropathic pain (Chung surgery and von Frey test). To test agents for activity against peripheral mononeuropathy nerve injury-induced tactile allodynia, male Sprague Dawley rats (wt. 120-160 g) were surgically prepared with unilateral tight ligation of spinal nerves L5 and L6 following the method of Kim and Chung (Kim S. H., Chung J. M. (1992) Pain, September; 50(3):355-63). After 3-4 weeks recovery, paw withdrawal to light touch was assessed as described by Chaplan et al. (Chaplan S. R., et al., (1994) J. Neurosci Methods, July; 53(1):55-63). […] After acclimation, baseline von Frey thresholds were assessed for the injured hindpaw at −15 min. […] Following drug administration, von Frey thresholds were measured at 15, 30, 60 and 90 min. Data were analyzed by a 2-way repeated measures analysis of variance followed by Dunnett's test (p<0.05). […]
Reversal of neuropathic pain behavior may be expressed as a percentage (0-100%) of the maximum possible effect, over and above the vehicle effects. […]
For example, a compound which immediately reversed neuropathic pain behavior to normal levels, such that animals only responded to the highest von Frey filament (15 g), and maintained normal levels through out the post-drug testing period (90 min) would be calculated as Δ% MPE=100%.

[2] = tested on: KCNQ channels; assay: Thallium flux assay for KCNQ channel openers; format: cell-based; conditions: HEK-293 cells stably transfected with a KCNQ family member; for Min. conc. response: minimal active concentration: lowest concentration giving signal amplitude >= four standard deviations of negative controls
How it was run: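 HEK-293 lines stably expressing individual KCNQ members, loaded with BTC-AM in chloride-free buffer pH 7.3, compound added (1% DMSO final) before 7.5 mM Tl2SO4 stimulus; fluorescence read 60 s on FLIPR. Minimal active concentration at ≥4 SD above negative controls; EC50 from 10-point logistic fit.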

| Structure (SMILES) | AUC (Δ % MPE) [1] | Min. conc. response [2] | EC50 ([2]; thallium flux, 10 point concentration series) |
| --- | --- | --- | --- |
| NCC1(CC(=O)O)CCCCC1 [Gabapentin, gabapentin, reference compound] | 50 (100 mg/kg, i.v.) Δ % MPE | – | – |
| CC(NC(=O)c1sc(-c2ccc(F)cc2)nc1C(F)(F)F)c1cccc(OC(F)(F)F)c1 (stereo not shown) [Example 17, 2-(4-fluorophenyl)-4-(trifluoromethyl)-N-[1-[3-(trifluoromethoxy)phenyl]ethyl]-5-thiazolecarboxamide] | – | 0.3 µM | < 50 nM |
| CC(NC(=O)c1sc(-c2ccc3c(c2)OCO3)nc1C(F)(F)F)c1cccc(C(F)(F)F)c1 (stereo not shown) [Example 87] | – | 0.3 µM | – |
